# According to article PMC5063996, “The Mechanism by Which Arabinoxylanases Can Recognize Highly Decorated Xylans” (The Journal of Biological Chemistry, 2016):
# Target: T1, CtGH5-CBM6 (CtGH5-CtCBM6, derivative of arabinoxylanase CtXyl5A) (Acetivibrio thermocellus, UniProt A3DHG6, E279S)
# T1 construct: gene Cthe_2193; no signal peptide, CBM13, Fn3, CBM62 or dockerin; C-terminal His6; E. coli BL21(DE3)
# Experiment: X-ray crystal structure, co-crystal, […] Å
# Format: binding
# Conditions: nucleophile-inactive mutant; 10 mM WAX-derived oligosaccharide; subsites -1 to -4 and -2*; PDB code printed as 2LA2 (apparent misprint for 5LA2)
# T1 sequence (A3DHG6 entry or part of it E279S): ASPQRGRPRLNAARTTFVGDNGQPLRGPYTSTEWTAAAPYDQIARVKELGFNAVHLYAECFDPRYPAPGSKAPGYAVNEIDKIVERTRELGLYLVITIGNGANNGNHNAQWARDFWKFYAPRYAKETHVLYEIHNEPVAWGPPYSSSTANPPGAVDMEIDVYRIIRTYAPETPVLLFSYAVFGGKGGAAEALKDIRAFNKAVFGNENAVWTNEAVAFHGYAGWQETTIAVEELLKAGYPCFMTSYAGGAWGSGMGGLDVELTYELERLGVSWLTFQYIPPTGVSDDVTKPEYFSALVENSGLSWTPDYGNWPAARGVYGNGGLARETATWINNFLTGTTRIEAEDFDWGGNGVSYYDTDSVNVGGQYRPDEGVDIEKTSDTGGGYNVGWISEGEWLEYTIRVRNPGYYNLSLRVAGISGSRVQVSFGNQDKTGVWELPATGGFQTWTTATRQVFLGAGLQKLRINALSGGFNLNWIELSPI
compound,measurement,value
"OC[C@@H]1O[C@@H](O[C@H]2[C@H](O[C@@H]3OC[C@@H](O[C@@H]4OC[C@@H](O[C@@H]5OC[C@@H](O)[C@H](O)[C@H]5O)[C@H](O)[C@H]4O)[C@H](O)[C@H]3O)COC(O)[C@@H]2O)[C@H](O)[C@H]1O (stereo partly drawn) [Xylp-β-1,4-Xylp-β-1,4-Xylp-[α-1,3-Araf]-β-1,4-Xylp]","X-ray crystal structure, co-crystal, 1.65 Å",co-crystallizing the nucleophile inactive mutant CtGH5E279S-CtCBM6 with a WAX-derived oligosaccharide
